The source of these data is PMC6190683 (Bioorganic & medicinal chemistry letters, 2017).

Where only a bound is given, the exact number is not on record here.

In this test the target is Mtb NadE (Mycobacterium tuberculosis, UniProt P9WJJ3). The test can be described thus: ammonia-dependent Mtb NadE inhibition assay. The class given is biochemical.
Mtb NadE, sequence (P9WJJ3 whole entry): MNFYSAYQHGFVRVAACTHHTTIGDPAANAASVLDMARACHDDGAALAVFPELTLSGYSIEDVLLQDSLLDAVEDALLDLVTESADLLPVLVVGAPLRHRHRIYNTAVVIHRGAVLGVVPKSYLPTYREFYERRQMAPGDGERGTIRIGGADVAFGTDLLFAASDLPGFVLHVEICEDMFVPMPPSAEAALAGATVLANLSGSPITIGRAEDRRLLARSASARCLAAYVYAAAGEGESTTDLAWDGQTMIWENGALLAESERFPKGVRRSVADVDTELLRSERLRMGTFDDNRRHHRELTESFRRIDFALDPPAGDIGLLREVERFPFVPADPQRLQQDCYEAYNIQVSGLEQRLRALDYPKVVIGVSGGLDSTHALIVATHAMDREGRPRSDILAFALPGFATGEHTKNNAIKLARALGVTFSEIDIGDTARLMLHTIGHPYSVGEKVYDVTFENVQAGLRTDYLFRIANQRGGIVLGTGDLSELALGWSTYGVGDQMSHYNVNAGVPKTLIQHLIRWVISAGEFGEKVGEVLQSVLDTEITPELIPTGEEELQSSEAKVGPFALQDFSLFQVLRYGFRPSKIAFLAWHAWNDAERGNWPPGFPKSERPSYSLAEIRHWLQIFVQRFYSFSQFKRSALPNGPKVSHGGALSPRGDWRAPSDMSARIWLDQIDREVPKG
Turning to `COc1ccc(NS(=O)(=O)c2ccc(NC(=O)Nc3ccc([N+](=O)[O-])cc3)cc2)cc1` [Compound 4d], the IC50 (commonly the concentration that inhibits the measured activity by half) is above 200 µM.
In the case of `O=C(Nc1ccc([N+](=O)[O-])cc1)Nc1ccc(S(=O)(=O)Nc2ccc([N+](=O)[O-])cc2)cc1` [Compound 4f] it was above 200 µM.
The same measure for `O=C(Nc1ccc([N+](=O)[O-])cc1)Nc1ccc(S(=O)(=O)Nc2cccc(C(F)(F)F)c2)cc1` [Compound 4h]: above 200 µM.
In the case of `O=C(Nc1ccc([N+](=O)[O-])cc1)Nc1ccc(S(=O)(=O)Nc2ccccc2)cc1` [Compound 4l] it was above 200 µM.
